Assay results as given in PubChem BioAssay AID2060344 (Molecular Pharmacology Branch, DTP, NCI, 2025).
Where “and” joins values, the source holds several entries; their conditions need not be identical. Equal entries are not always repeated.

System: SK-MEL-2 multi-cell spheroids, viability
Experiment: Anticancer human tumor SK-MEL-2 cell line growth inhibition [TAK];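 further: spheroids exposed to drugs for seven days before readout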;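 on viability, T/C: percent of DMSO vehicle control luminescence so 100% = untreated viability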
Conditions: for viability, T/C: stronger effect = lower value
From the text: Combinatorial screen of targeted agents with TAK-243 and ipatasertib in multi-cell type tumor spheroids
A high-throughput screen of multi-cell type tumor spheroids was designed to identify active combinations of targeted small molecules and TAK-243 or ipatasertib. Complex spheroids include a stromal component modeled by human endothelial cells (HUVEC) and fibroblasts modeled by human mesenchymal stem cells (MSCs). The concentration ranges selected for each drug and investigational agent were based upon clinically achievable concentrations if the clinical Cmax of the agent was known.
Compounds. The drugs and investigational agents: TAK-243 (785004), ipatasertib (767898), everolimus (733504), selumetinib (741078), bortezomib (756655), trametinib (758246), ixazomib (758254), vemurafenib (761431), dabrafenib (764134), sapanisertib (764658), alpelisib (765974), and copanlisib (816437), were obtained from the National Cancer Institute (NCI) Developmental Therapeutics Program Chemical Repository. The FDA-approved anticancer drug set is available from the NCI Developmental Therapeutics Program. […] The stock solutions were prepared in dimethyl sulfoxide (DMSO, Sigma-Aldrich, St. Louis, MO, cat. D2650) at 800-fold the tested concentration and stored at -70 degrees C prior to their use. All drugs and investigational agents were tested over a range starting from a high concentration at or near the clinical Cmax and decreasing in half-log increments. If the clinical Cmax for an agent had not been determined, the highest concentration tested was 10 microM.
NCI60 Cell Culture. NCI60 cell lines were obtained from the NCI Developmental Therapeutics Program Tumor Repository. For each lot of cells, the Repository performed Applied Biosystems AmpFLSTR Identifiler testing with PCR amplification to confirm consistency with the published Identifier STR profile for each cell line. Cells were kept in continuous culture for no more than 20 passages. The optimal seeding densities for each of the cell lines at each time point assessed were determined prior to performing the concentration response studies. Briefly, the NCI60 human tumor lines were grown as monolayers in RPMI 1640 medium supplemented with 10% FBS and 2 mmol/L L-glutamine.
An additional 2 lines were from the NCI60 cell line panel including melanomas, MALME-3M and SK-MEL-2. Pooled donor human umbilical vein endothelial cells (HUVEC, Lonza, cat. CC-2519) and human mesenchymal stem cells (hMSC, Lonza, cat. PT-2501) were purchased from Lonza (Walkersville, MD).
PDMR cell lines were grown in complete medium (DC medium): Dulbecco's modified Eagle's medium (DMEM)/F12 supplemented with 5% fetal bovine serum (FBS), 2 mM L-glutamine, 100 U/mL penicillin and 100 µg/ml streptomycin, 0.4 µg/ml hydrocortisone, 10 ng/ml epidermal growth factor (EGF) recombinant human protein, 24 µg/mL adenine, and 0.1 mg/mL primocin. During culture from frozen stock vials, PDMR cells were cultured in the same medium containing 10 µM Y-27632 (see Table 3). The PDCs were cultured in complete DMEM/F12 media without 10 microM Y-27632 dihydrochloride for at least two passages prior to the screen. The pooled donor HUVEC and hMSC were cultured in endothelial cell growth medium 2 (PromoCell, Heidelberg, Germany, cat. C-22011) and mesenchymal stem cell growth medium 2 (PromoCell, cat. C-28009), respectively. For all experiments, HUVEC and hMSC were used at passages </=5.
For the pre-screen, cell seeding densities were determined from a titration spanning the range from 5,000 to 313 cells per well. The mct-spheroids including 60% malignant cells, 25% HUVEC and 15% MSC dispensed as a mixture into U-bottom Ultra-Low Attachment 384-well plates (Corning, NY)
High-throughput Drug Combination Screening.
Prior to their inoculation into 384-well plates, malignant cells, HUVEC, and hMSC were removed from T flasks using TrypLE express (Thermo Fisher Scientific, cat. 12605036) and harvested by centrifugation for 5 min at 233 x g. […]

[1] = curve of first compound, second compound 0.3 µM
[2] = curve of first compound, second compound 0.949 µM
[3] = curve of first compound, second compound 3 µM
[4] = curve of first compound, second compound 9.49 µM
[5] = curve of first compound, second compound 30 µM
[6] = second compound 0.3 µM, first compound 0.0316 µM
[7] = second compound 0.3 µM, first compound 0.1 µM
[8] = second compound 0.949 µM, first compound 0.0316 µM
[9] = second compound 0.949 µM, first compound 0.1 µM
[10] = second compound 3 µM, first compound 0.0316 µM
[11] = second compound 3 µM, first compound 0.1 µM
[12] = second compound 9.49 µM, first compound 0.0316 µM
[13] = second compound 9.49 µM, first compound 0.1 µM
[14] = second compound 30 µM, first compound 0.0316 µM
[15] = second compound 30 µM, first compound 0.1 µM
[16] = second compound 0.3 µM, first compound 0.316 µM
[17] = second compound 0.3 µM, first compound 1 µM
[18] = second compound 0.3 µM, first compound 3.16 µM
[19] = second compound 0.3 µM, first compound 10 µM
[20] = second compound 0.949 µM, first compound 0.316 µM
[21] = second compound 0.949 µM, first compound 1 µM
[22] = second compound 0.949 µM, first compound 3.16 µM
[23] = second compound 0.949 µM, first compound 10 µM
[24] = second compound 3 µM, first compound 0.316 µM
[25] = second compound 3 µM, first compound 1 µM
[26] = second compound 3 µM, first compound 3.16 µM
[27] = second compound 3 µM, first compound 10 µM
[28] = second compound 9.49 µM, first compound 0.316 µM
[29] = second compound 9.49 µM, first compound 1 µM
[30] = second compound 9.49 µM, first compound 3.16 µM
[31] = second compound 9.49 µM, first compound 10 µM
[32] = second compound 30 µM, first compound 0.316 µM
[33] = second compound 30 µM, first compound 1 µM
[34] = second compound 30 µM, first compound 3.16 µM
[35] = second compound 30 µM, first compound 10 µM

## CC(C)n1nc(-c2ccc3oc(N)nc3c2)c2c(N)ncnc21 + CC(C)NCC(C(=O)N1CCN(c2ncnc3c2C(C)CC3O)CC1)c1ccc(Cl)cc1
[1]
  IC50: 29.5 nM
[2]
  IC50: 10.7 nM
[3]
  IC50: 3.22 nM
[4]
  IC50: 1.31 nM
[5]
  IC50: 0.858 nM
Second compound 0.3 µM, first compound 0.000316 µM
  viability, T/C: 98.6%
Second compound 0.3 µM, first compound 0.001 µM
  viability, T/C: 92.4%
Second compound 0.3 µM, first compound 0.00316 µM
  viability, T/C: 82.1%
Second compound 0.3 µM, first compound 0.01 µM
  viability, T/C: 76.8%
[6]
  viability, T/C: 45.8%
[7]
  viability, T/C: 25.5%
Second compound 0.949 µM, first compound 0.000316 µM
  viability, T/C: 85.6%
Second compound 0.949 µM, first compound 0.001 µM
  viability, T/C: 82%
Second compound 0.949 µM, first compound 0.00316 µM
  viability, T/C: 58.7%
Second compound 0.949 µM, first compound 0.01 µM
  viability, T/C: 55.6%
[8]
  viability, T/C: 33.4%
[9]
  viability, T/C: 19%
Second compound 3 µM, first compound 0.000316 µM
  viability, T/C: 66%
Second compound 3 µM, first compound 0.001 µM
  viability, T/C: 62.3%
Second compound 3 µM, first compound 0.00316 µM
  viability, T/C: 48.5%
Second compound 3 µM, first compound 0.01 µM
  viability, T/C: 37.8%
[10]
  viability, T/C: 27.2%
[11]
  viability, T/C: 12.5%
Second compound 9.49 µM, first compound 0.000316 µM
  viability, T/C: 56.3%
Second compound 9.49 µM, first compound 0.001 µM
  viability, T/C: 54.4%
Second compound 9.49 µM, first compound 0.00316 µM
  viability, T/C: 42.2%
Second compound 9.49 µM, first compound 0.01 µM
  viability, T/C: 34.7%
[12]
  viability, T/C: 25.1%
[13]
  viability, T/C: 13.6%
Second compound 30 µM, first compound 0.000316 µM
  viability, T/C: 52.6%
Second compound 30 µM, first compound 0.001 µM
  viability, T/C: 51.4%
Second compound 30 µM, first compound 0.00316 µM
  viability, T/C: 41.2%
Second compound 30 µM, first compound 0.01 µM
  viability, T/C: 32.9%
[14]
  viability, T/C: 20.7%
[15]
  viability, T/C: 9.08%

## CCCS(=O)(=O)Nc1ccc(F)c(C(=O)c2c[nH]c3ncc(-c4ccc(Cl)cc4)cc23)c1F + CC(C)NCC(C(=O)N1CCN(c2ncnc3c2C(C)CC3O)CC1)c1ccc(Cl)cc1
[1]
  IC50: 25900 nM
[2]
  IC50: 24000 nM
[3]
  IC50: 13100 nM
[4]
  IC50: 64500 nM
[5]
  IC50: 18800 nM
[16]
  viability, T/C: 127%
[17]
  viability, T/C: 108%
[18]
  viability, T/C: 105%
[19]
  viability, T/C: 118%
Second compound 0.3 µM, first compound 31.6 µM
  viability, T/C: 15.1%
Second compound 0.3 µM, first compound 100 µM
  viability, T/C: 57.5%
[20]
  viability, T/C: 121%
[21]
  viability, T/C: 110%
[22]
  viability, T/C: 107%
[23]
  viability, T/C: 80.3%
Second compound 0.949 µM, first compound 31.6 µM
  viability, T/C: 31.6%
Second compound 0.949 µM, first compound 100 µM
  viability, T/C: 49.3%
[24]
  viability, T/C: 115%
[25]
  viability, T/C: 110%
[26]
  viability, T/C: 105%
[27]
  viability, T/C: 61.1%
Second compound 3 µM, first compound 31.6 µM
  viability, T/C: 14.3%
Second compound 3 µM, first compound 100 µM
  viability, T/C: 10.9%
[28]
  viability, T/C: 112%
[29]
  viability, T/C: 120%
[30]
  viability, T/C: 107%
[31]
  viability, T/C: 114%
Second compound 9.49 µM, first compound 31.6 µM
  viability, T/C: 120%
Second compound 9.49 µM, first compound 100 µM
  viability, T/C: 10.4%
[32]
  viability, T/C: 121%
[33]
  viability, T/C: 124%
[34]
  viability, T/C: 64.3%
[35]
  viability, T/C: 119%
Second compound 30 µM, first compound 31.6 µM
  viability, T/C: 2.99%
Second compound 30 µM, first compound 100 µM
  viability, T/C: 2.24%

## COC1CC2CCC(C)C(O)(O2)C(=O)C(=O)N2CCCCC2C(=O)OC(C(C)CC2CCC(OCCO)C(OC)C2)CC(=O)C(C)C=C(C)C(O)C(OC)C(=O)C(C)CC(C)C=CC=CC=C1C (stereo unspecified)
Compound 0.000316 µM
  viability, T/C: 85% and 118%
Compound 0.001 µM
  viability, T/C: 66.2% and 89%
Compound 0.00316 µM
  viability, T/C: 57.4% and 74.4%
Compound 0.01 µM
  viability, T/C: 55.8% and 73.2%
Compound 0.0316 µM
  viability, T/C: 52.8% and 58.8%
Compound 0.1 µM
  viability, T/C: 47.7% and 69.9%
Curve of compound
  IC50: > 100 nM

## CC(C)CC(NC(=O)CNC(=O)c1cc(Cl)ccc1Cl)B1OC(=O)CC(CC(=O)O)(C(=O)O)O1 (stereo unspecified)
Compound 0.000316 µM
  viability, T/C: 110% and 95.1%
Compound 0.001 µM
  viability, T/C: 94.6% and 97.2%
Compound 0.00316 µM
  viability, T/C: 98% and 93.9%
Compound 0.01 µM
  viability, T/C: 79.3% and 75.7%
Compound 0.0316 µM
  viability, T/C: 24.6% and 26%
Compound 0.1 µM
  viability, T/C: 6.45% and 4.25%
Curve of compound
  IC50: 18.5 nM and 18.1 nM

## Cc1nc(NC(=O)N2CCCC2C(N)=O)sc1-c1ccnc(C(C)(C)C(F)(F)F)c1 (stereo unspecified) + CC(C)NCC(C(=O)N1CCN(c2ncnc3c2C(C)CC3O)CC1)c1ccc(Cl)cc1
[1]
  IC50: > 10000 nM
[2]
  IC50: > 10000 nM
[3]
  IC50: > 10000 nM
[4]
  IC50: > 10000 nM
[5]
  IC50: 218 nM
[6]
  viability, T/C: 97%
[7]
  viability, T/C: 84.7%
[16]
  viability, T/C: 70.5%
[17]
  viability, T/C: 79.8%
[18]
  viability, T/C: 75.3%
[19]
  viability, T/C: 55.6%
[8]
  viability, T/C: 85%
[9]
  viability, T/C: 74.7%
[20]
  viability, T/C: 64.8%
[21]
  viability, T/C: 65.8%
[22]
  viability, T/C: 59.5%
[23]
  viability, T/C: 49.4%
[10]
  viability, T/C: 66.1%
[11]
  viability, T/C: 67.3%
[24]
  viability, T/C: 52.8%
[25]
  viability, T/C: 58.8%
[26]
  viability, T/C: 57.3%
[27]
  viability, T/C: 51.2%
[12]
  viability, T/C: 56%
[13]
  viability, T/C: 56.4%
[28]
  viability, T/C: 48.7%
[29]
  viability, T/C: 51.1%
[30]
  viability, T/C: 55.9%
[31]
  viability, T/C: 49.2%
[14]
  viability, T/C: 52.4%
[15]
  viability, T/C: 55.8%
[32]
  viability, T/C: 46.2%
[33]
  viability, T/C: 43.7%
[34]
  viability, T/C: 50.3%
[35]
  viability, T/C: 40%

## CCCS(=O)(=O)Nc1ccc(F)c(C(=O)c2c[nH]c3ncc(-c4ccc(Cl)cc4)cc23)c1F
Compound 0.316 µM
  viability, T/C: 105% and 130%
Compound 1 µM
  viability, T/C: 102% and 129%
Compound 3.16 µM
  viability, T/C: 103% and 113%
Compound 10 µM
  viability, T/C: 83% and 41.8%
Compound 31.6 µM
  viability, T/C: 117% and 58.2%
Compound 100 µM
  viability, T/C: 106% and 71.2%
Curve of compound
  IC50: > 100000 nM
